Experimental data published in ChEMBL document CHEMBL5550214, “Expanding Structure-Activity Relationships of Human Urotensin II Peptide Analogues: A Proposed Key Role of the N-Terminal Region for Novel Urotensin II Receptor Modulators” (J Med Chem, 2024).
Active and inactive are the calls of the source. No cut-off for these calls is given here. Where a SMILES comes first, the peptide text is derived from it. Bridges are numbered along the chain shown (N, C = ends). [ ]: non-standard residue; d: D form. Pen = CC(C)(S)[C@H](N)C(=O)O; hSer = N[C@@H](CCO)C(=O)O; Orn = NCCC[C@H](N)C(=O)O; Dab = NCC[C@H](N)C(=O)O

Assays:
[1] = molecular target: T1, Urotensin-2 receptor (Homo sapiens, UniProt Q9UKP6); assay: Modulation of human UTR stably expressed in HEK293 cells assessed as increase in Ca2+ level by Fura 2-AM dye based calcium mobilization assay; type: functional, cell-based
T1 sequence (Q9UKP6 whole entry): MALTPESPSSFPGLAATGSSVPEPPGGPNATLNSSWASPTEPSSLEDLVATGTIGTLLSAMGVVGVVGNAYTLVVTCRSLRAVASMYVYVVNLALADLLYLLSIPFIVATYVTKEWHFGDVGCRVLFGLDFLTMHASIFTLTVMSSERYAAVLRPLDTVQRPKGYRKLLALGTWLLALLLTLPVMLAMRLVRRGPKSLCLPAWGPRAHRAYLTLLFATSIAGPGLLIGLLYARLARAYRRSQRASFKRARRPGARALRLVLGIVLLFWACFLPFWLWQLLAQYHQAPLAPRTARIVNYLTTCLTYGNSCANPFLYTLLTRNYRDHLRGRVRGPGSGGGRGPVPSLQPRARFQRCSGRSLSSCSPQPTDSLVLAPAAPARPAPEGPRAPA

[2] = system: Aortic ring; assay: Induction of contraction in Albino Wistar rat aortic ring at 1 to 30 nM relative to control; type: functional, Aorta; conditions: dose 1-30 nM
[3] = molecular target: T2, Urotensin-2 receptor (Homo sapiens) (UniProt Q9UKP6); assay: Modulation of human UTR stably expressed in HEK293 cells assessed as increase in Ca2+ level at 0.01 to 1 nM by Fura 2-AM dye based calcium mobilization assay; type: functional, cell-based; conditions: filed as modulator, dose 0.01-1 nM
T2 sequence (whole entry): T1 sequence (Q9UKP6 whole entry)

[4] = system: Aortic ring; assay: Induction of contraction in Albino Wistar rat aortic ring at 1 to 30 nM; type: functional, tissue-based; conditions: Aorta, dose 1-30 nM
[5] = molecular target: T2, Urotensin-2 receptor (Homo sapiens); assay: Modulation of human UTR stably expressed in HEK293 cells assessed as increase in Ca2+ level at 0.1 to 100 nM by Fura 2-AM dye based calcium mobilization assay; type: functional, cell-based; conditions: dose 0.1-100 nM
[6] = molecular target: T2, Urotensin-2 receptor (Homo sapiens); assay: Modulation of human UTR stably expressed in HEK293 cells assessed as increase in Ca2+ level at 0.1 nM by Fura 2-AM dye based calcium mobilization assay; type: functional, cell-based; conditions: filed as modulator

Row | Activity [5] | Compound | Emax [2] | further results
1 |  | CC(C)[C@H](NC(=O)[C@@H]1CSSC[C@H](NC(=O)[C@@H](N)CC(=O)O)C(=O)N[C@@H](Cc2ccccc2)C(=O)N[C@@H](Cc2c[nH]c3ccccc23)C(=O)N[C@@H](CCCCN)C(=O)N[C@@H](Cc2ccc(O)cc2)C(=O)N1)C(=O)O (H-DCFWKYCV-OH; disulfide 2-7) |  | EC50 [1]: 1.2 nM
2 |  | CC(C)[C@H](NC(=O)[C@@H]1CSSC[C@H](NC(=O)[C@H](CC(=O)O)NC(=O)[C@@H]2CCCN2C(=O)[C@@H](NC(=O)[C@@H](N)CCN)[C@@H](C)O)C(=O)N[C@@H](Cc2ccccc2)C(=O)N[C@@H](Cc2c[nH]c3ccccc23)C(=O)N[C@@H](CCCCN)C(=O)N[C@@H](Cc2ccc(O)cc2)C(=O)N1)C(=O)O (H-[Dab]TPDCFWKYCV-OH; disulfide 5-10) | 97.78 dyn/mg | 
3 |  | CC(C)[C@H](NC(=O)[C@@H]1CSSC[C@H](NC(=O)[C@H](CC(=O)O)NC(=O)[C@@H]2CCCN2C(=O)[C@@H](NC(=O)[C@@H](N)CCC(=O)O)[C@@H](C)O)C(=O)N[C@@H](Cc2ccccc2)C(=O)N[C@@H](Cc2c[nH]c3ccccc23)C(=O)N[C@@H](CCCCN)C(=O)N[C@@H](Cc2ccc(O)cc2)C(=O)N1)C(=O)O [UROTENSIN-II] | 237.2 dyn/mg | 
4 |  | CC(C)[C@H](NC(=O)[C@@H]1CSSC[C@H](NC(=O)[C@H](CC(=O)O)NC(=O)[C@@H]2CCCN2C(=O)[C@@H](NC(=O)[C@H](C)N)[C@@H](C)O)C(=O)N[C@@H](Cc2ccccc2)C(=O)N[C@@H](Cc2c[nH]c3ccccc23)C(=O)N[C@@H](CCCCN)C(=O)N[C@@H](Cc2ccc(O)cc2)C(=O)N1)C(=O)O (H-ATPDCFWKYCV-OH; disulfide 5-10) |  | Activity [3]: Active
5 | inactive | CC(C)[C@H](NC(=O)[C@@H]1CSSC(C)(C)[C@H](NC(=O)[C@@H](N)CC(=O)O)C(=O)N[C@@H](Cc2ccccc2)C(=O)N[C@H](Cc2c[nH]c3ccccc23)C(=O)N[C@@H](CCCN)C(=O)N[C@@H](Cc2ccc(O)cc2)C(=O)N1)C(=O)O (H-D[Pen]F[dW][Orn]YCV-OH; disulfide 2-7) |  | Activity [4]: inactive
6 | inactive | CC(C)[C@H](NC(=O)[C@@H]1CSSC[C@H](NC(=O)[C@H](CC(=O)O)NC(=O)[C@@H]2CCCN2C(=O)[C@@H](NC(=O)[C@@H](N)CCO)[C@@H](C)O)C(=O)N[C@@H](Cc2ccccc2)C(=O)N[C@@H](Cc2c[nH]c3ccccc23)C(=O)N[C@@H](CCCCN)C(=O)N[C@@H](Cc2ccc(O)cc2)C(=O)N1)C(=O)O (H-[hSer]TPDCFWKYCV-OH; disulfide 5-10) | 144.2 dyn/mg | Activity [6]: Active
